Laboratory results taken from ChEMBL document CHEMBL3046600, “1-Phenoxyalkyl-4-[(N,N-disubstitutedamino)alkyl]piperazine derivatives as non-imidazole histamine H3-antagonists” (Med Chem Res, 2013).

These compounds were tested against T1, Histamine H3 receptor (Cavia porcellus, UniProt Q9JI35) (assay: Antagonist activity at histamine H3 receptor in Cavia porcellus (guinea pig) ileum assessed as inhibition of electrically-induced contraction). Settings: read-out: pA2 (converted).
Assay type: tissue-based

T1 sequence (Q9JI35 whole entry): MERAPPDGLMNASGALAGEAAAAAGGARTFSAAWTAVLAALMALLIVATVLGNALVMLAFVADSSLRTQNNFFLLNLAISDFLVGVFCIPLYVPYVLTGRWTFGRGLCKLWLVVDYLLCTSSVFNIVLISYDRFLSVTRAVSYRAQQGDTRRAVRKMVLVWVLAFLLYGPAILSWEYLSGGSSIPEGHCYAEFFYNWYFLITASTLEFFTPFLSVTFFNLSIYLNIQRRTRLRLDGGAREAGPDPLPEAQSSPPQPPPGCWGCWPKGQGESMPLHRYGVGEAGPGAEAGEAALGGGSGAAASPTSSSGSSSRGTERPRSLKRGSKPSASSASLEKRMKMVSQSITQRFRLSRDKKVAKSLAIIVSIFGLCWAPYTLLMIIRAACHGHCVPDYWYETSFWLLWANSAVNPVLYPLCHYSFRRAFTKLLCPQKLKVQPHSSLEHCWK

Structure (SMILES) | Kb [nM]
CN(CCCCN1CCN(CCCCCCCOc2ccccc2)CC1)C(=O)C(F)(F)F | 100
CN(CCCCN1CCN(CCCCCCCOc2ccccc2)CC1)C(=O)c1ccccc1 | 105
CC(=O)N(C)CCCCN1CCN(CCCCCCCOc2ccccc2)CC1 | 69.2

The compounds below were run against Histamine H1 receptor (Cavia porcellus, UniProt P31389) (assay: Antagonist activity at histamine H1 receptor in Cavia porcellus (guinea pig) ileum assessed as inhibition of histamine-induced contraction). Settings: read-out: pA2 (converted).
Sequence of Histamine H1 receptor (P31389 whole entry): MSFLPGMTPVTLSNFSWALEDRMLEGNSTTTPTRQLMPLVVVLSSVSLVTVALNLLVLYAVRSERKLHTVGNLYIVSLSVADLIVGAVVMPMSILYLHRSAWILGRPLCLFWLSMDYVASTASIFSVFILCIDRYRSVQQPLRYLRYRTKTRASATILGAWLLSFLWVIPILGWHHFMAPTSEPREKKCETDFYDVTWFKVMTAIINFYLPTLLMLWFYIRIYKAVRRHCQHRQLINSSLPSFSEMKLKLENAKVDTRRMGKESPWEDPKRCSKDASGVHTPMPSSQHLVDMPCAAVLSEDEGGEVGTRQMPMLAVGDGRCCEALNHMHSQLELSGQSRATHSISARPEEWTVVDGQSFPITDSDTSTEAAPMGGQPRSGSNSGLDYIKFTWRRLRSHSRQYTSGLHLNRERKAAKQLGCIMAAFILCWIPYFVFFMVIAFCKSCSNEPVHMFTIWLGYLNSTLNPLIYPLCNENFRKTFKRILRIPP

Structure (SMILES) | Kb [µM]
NCCCCN1CCN(CCCCCCCOc2ccccc2)CC1 | > 100

What follows are compounds tested against T1, Histamine H3 receptor (assay: Antagonist activity at histamine H3 receptor in Cavia porcellus (guinea pig) jejunum assessed as inhibition of electrically-induced contraction). Settings: read-out: pA2 (converted).

Structure (SMILES) | Kb [nM]
NCCCN1CCN(CCCCCCOc2ccccc2)CC1 | 191
NCCCN1CCN(CCCCCCCCCOc2ccccc2)CC1 | 102
NCCCN1CCN(CCCCCCCCOc2ccccc2)CC1 | 145
NCCN1CCN(CCCCCCCOc2ccccc2)CC1 | 380
NCCCN1CCN(CCCCCOc2ccccc2)CC1 | 158
NCCCCCCN1CCN(CCCCCCCOc2ccccc2)CC1 | 214
NCCCCCCCN1CCN(CCCCCCCOc2ccccc2)CC1 | 214
NCCCCCN1CCN(CCCCCCCOc2ccccc2)CC1 | 102
NCCCCN1CCN(CCCCCCCOc2ccccc2)CC1 | 66.1
NCCCN1CCN(CCCCOc2ccccc2)CC1 | 240
NCCCN1CCN(CCCOc2ccccc2)CC1 | 513
NCCCN1CCN(CCOc2ccccc2)CC1 | 178
NCCCN1CCN(CCCCCCCOc2ccccc2)CC1 | 91.2
S=C(NC1CCCCC1)N1CCC(c2cnc[nH]2)CC1 [THIOPERAMIDE] | 2.19
